{"source": "patent US4079177A", "about": "“Clavulanic acid carbamates” (Beecham Group Limited, priority 1975, dated 1978)", "key": {"Escherichia coli JT4": {"test_system": "Escherichia coli JT4", "assay": "Minimum inhibitory concentration (mic), synergistical activity against β-lactamase producing organisms", "type": "cell-based", "details": "substance alone", "method": "(§1) The minimum inhibitory concentrations (mic) of ampicillin N-methylcarbamoylclavulanic acid, and mixtures of ampicillin and N-methylcarbamoylclavulanic acid were determined against 4 β-lactamase producing organisms.\n(§2) MIC's (in μg/ml) of Ampicillin and N-methylcarbamoylclavulanic acid\n(§3) combinations thereof against 4 β-lactamase producing organisms."}, "Klebsiella aerogenes E70": {"test_system": "Klebsiella aerogenes E70", "assay": "Minimum inhibitory concentration (mic), synergistical activity against β-lactamase producing organisms", "type": "cell-based", "details": "substance alone", "method": "as §1, §2, §3"}, "Proteus mirabilis C889": {"test_system": "Proteus mirabilis C889", "assay": "Minimum inhibitory concentration (mic), synergistical activity against β-lactamase producing organisms", "type": "cell-based", "details": "substance alone", "method": "as §1, §2, §3"}, "[1]": {"test_system": "Staphylococcus aureus Russell", "assay": "Minimum inhibitory concentration (mic), synergistical activity against β-lactamase producing organisms", "type": "cell-based", "details": "substance alone", "method": "as §1, §2, §3"}, "[2]": {"assay": "Stability of n.m.r. solution (D2O)", "type": "physicochemical", "source_text": "n.m.r. (D2 O) 2.88 (3H,s, NCH3) 3.20 (1H,d, J 18Hz, 6β-CH) 3.70 (1H,dd, J 18Hz J' 3Hz 6α-CH) 5.7δ (1H,d, J 3Hz, 5-CH); the other protons were obscured by the water peak."}}}
{"smiles": "CNC(=O)OC/C=C1\\O[C@@H]2CC(=O)N2[C@H]1C(=O)O", "note": "[N-methylcarbamoylclavulanic acid]", "values": [{"measurement": "MIC", "setting": "Escherichia coli JT4", "value": "> 500", "unit": "µg/mL"}, {"measurement": "MIC", "setting": "Klebsiella aerogenes E70", "value": 500, "unit": "µg/mL"}, {"measurement": "MIC", "setting": "Proteus mirabilis C889", "value": "> 500", "unit": "µg/mL"}, {"measurement": "MIC", "setting": "[1]", "value": 250, "unit": "µg/mL"}]}
{"smiles": "CNC(=O)OC/C=C1\\O[C@@H]2CC(=O)N2[C@H]1C(=O)O", "note": "[Sodium N-methylcarbamoylclavulanate]", "values": [{"measurement": "degradation of the n.m.r. solution", "setting": "[2]", "value": "signs of rapid degradation"}]}
{"smiles": "CC1(C)S[C@@H]2[C@H](NC(=O)[C@H](N)c3ccccc3)C(=O)N2[C@H]1C(=O)O", "note": "[Ampicillin, ampicillin, reference compound]", "values": [{"measurement": "MIC", "setting": "Escherichia coli JT4", "value": "> 5000", "unit": "µg/mL"}, {"measurement": "MIC", "setting": "Klebsiella aerogenes E70", "value": 250, "unit": "µg/mL"}, {"measurement": "MIC", "setting": "Proteus mirabilis C889", "value": "> 500", "unit": "µg/mL"}, {"measurement": "MIC", "setting": "[1]", "value": 500, "unit": "µg/mL"}]}
